Consider 44 compounds from patent publication US20240316045A1, “CYCLOPROPYLAMIDE COMPOUNDS AGAINST PARASITES IN FISH” (Intervet Inc., priority 2021, published 2024).

Read-outs that look alike come from different tables or passages of the source.

Test [1] has as its system Copepodids (juvenile sea lice stage of Lepeophtheirus salmonis). Description: Juvenile sea lice contact assay. As to conditions: read-out: Sea lice inhibition (% of dead+damaged copepodids); for inhibition at 0.01 µM: test concentration 10 nM. Here is the method:
Copepodids (juvenile sea lice stage of Lepeophtheirus salmonis) were exposed to seawater spiked with declining concentrations of a test compound (dissolved in a DMSO sea-water mixture). Sea lice inhibition (% of dead+damaged copepodids) was assessed after approximately 24 hours of continuous exposure. The vitality of used parasites was confirmed in a negative (solvent) control group.

In test [2] the test system is Mobile stages of sea lice (pre-adults, adults of Lepeophtheirus salmonis). Description: Adult sea lice contact assay. The conditions noted are these: read-out: EC50 (sea lice inhibition, dead+damaged). How it is done: Mobile stages of sea lice (i.e., pre-adults, adults of Lepeophtheirus salmonis) were exposed to seawater spiked with declining concentrations of a test compound (dissolved in a PEG sea-water mixture). Sea lice inhibition (% of dead+damaged sea lice) was assessed after approximately 1 and 24 hours of continuous exposure in comparison to a negative (solvent) control group.

The subject of a further test is Lepeophtheirus salmonis. Description: Salmon in vivo efficacy trial against sea lice, gavage administration. As to conditions: in Salmo salar. Here is the method:
Salmon (Salmo salar) were treated once orally by gavage at a dose of 5 mg/kg bodyweight per fish (Day 0). As formulation DMSO 5%/fish oil 95% was used. Salmon of the negative control group received only the excipients of the formulation.
The fish were infested with Lepeophtheirus salmonis copepodids twice before treatment (i.e., around day −28 and day −3) and once after treatment (i.e., day 17). […]
Efficacy is expressed as a % reduction of sea lice in treated groups versus a control group, using the Abbott's formula.

[3] abbreviates: pre-adult/adult L. salmonis, assessed after approx. 1 and 24 hours, time of EC50 not stated.
Where [4] appears, read: approx. 24 hours continuous exposure.
Where [5] appears, read: test concentration 100 nM, approx. 24 hours continuous exposure.
The mark [6] stands for this setting: 168 h, read-out: therapeutic efficacy against (pre-)adult sea lice (% reduction vs control, Abbott), single oral gavage 5 mg/kg, count at day 7, day -28 infestation.
Setting [7] is: 672 h, read-out: therapeutic efficacy against juvenile sea lice (% reduction vs control, Abbott), single oral gavage 5 mg/kg, count around day 28, day -3 infestation.

Turning to `O=C(Nc1ccc(F)cc1)c1cc(NC(=O)C2C(c3cc(Cl)cc(Cl)c3)C2(Cl)Cl)ccc1F` (centres unmarked) [Compound 1003], the inhibition at 0.1 µM in test [1] (24 h) was at least 80%. Further, in test [2], the EC50 is 1 to 25 nM. For the compound `O=C(Nc1c(F)cc(F)cc1F)c1cc(NC(=O)C2C(c3cc(Cl)cc(Cl)c3)C2(Cl)Cl)ccc1Cl` (centres unmarked) [Compound 1006], in test [2] (setting [3]), the EC50 was at most 1 nM. Consider `O=C(Nc1c(F)cccc1F)c1cc(NC(=O)C2C(c3cc(Cl)cc(Cl)c3)C2(Cl)Cl)ccc1Cl` (centres unmarked) [Compound 1007], for which the inhibition at 0.01 µM in test [1] (setting [4]) is 80%. Moreover, the EC50 in test [2] (setting [3]) lay within 1 to 25 nM. For `O=C(Nc1ccncn1)c1cc(NC(=O)[C@H]2[C@H](c3cc(Cl)cc(Cl)c3)C2(Cl)Cl)ccc1Cl` [Compound 1039], in test [1] (setting [5]), the inhibition at 0.1 µM was 100%. In test [2] (setting [3]), the EC50 is 1 to 25 nM. For the same compound, the inhibition in vivo at 5 mg/kg in the test with Lepeophtheirus salmonis (setting [6]) and with Lepeophtheirus salmonis (setting [7]) was 80% each time. For `O=C(Nc1ncc(F)cc1F)c1cc(NC(=O)[C@H]2[C@H](c3ccc(Cl)c(Cl)c3)C2(Cl)Cl)ccc1Cl` [Compound 1041], in test [2] (setting [3]), the EC50 was 1 to 10 nM. Still for that read-out and setting: then `O=C(Nc1ncc(F)cc1F)c1cc(NC(=O)[C@H]2[C@H](c3ccc(F)c(Cl)c3)C2(Cl)Cl)ccc1Cl` [Compound 1042], with 1 to 10 nM.

Take `COc1cc(NC(=O)c2cc(NC(=O)C3C(c4cc(Cl)cc(Cl)c4)C3(Cl)Cl)ccc2Cl)ccn1` (centres unmarked) [Compound 1069]: the inhibition at 0.1 µM in test [1] (setting [5]) was 100%. Same read-out and setting: then `COc1ccc(NC(=O)c2cc(NC(=O)C3C(c4cc(Cl)cc(Cl)c4)C3(Cl)Cl)ccc2Cl)cn1` (centres unmarked) [Compound 1075], with 100%; and `COc1ccc(NC(=O)c2cc(NC(=O)C3C(c4ccc(F)c(Cl)c4)C3(Cl)Cl)ccc2Cl)cn1` (centres unmarked) [Compound 1076], with at least 80%. For `O=C(Nc1ncc(F)cc1F)c1cc(NC(=O)C2C(c3cc(Cl)cc(C(F)F)c3)C2(Cl)Cl)ccc1Cl` (centres unmarked) [Compound 1079], the inhibition at 0.1 µM in test [1] (setting [5]) is 100%.

On to `O=C(Nc1ncc(F)cc1F)c1cc(NC(=O)C2C(c3ccc(Cl)c(C(F)F)c3)C2(Cl)Cl)ccc1Cl` (centres unmarked) [Compound 1080], for which, in test [1] (setting [5]), the inhibition at 0.1 µM worked out at 100%. Still for that read-out and setting: then `O=C(Nc1ncc(F)cc1F)c1cc(NC(=O)C2C(c3cc(F)cc(C(F)F)c3)C2(Cl)Cl)ccc1Cl` (centres unmarked) [Compound 1081], with 100%. Still for that read-out and setting: then `O=C(Nc1ncc(F)cc1F)c1cc(NC(=O)C2C(c3ccc(F)c(C(F)F)c3)C2(Cl)Cl)ccc1Cl` (centres unmarked) [Compound 1082], with 100%. Regarding `O=C(Nc1ncc(F)cc1F)c1cc(NC(=O)C2C(c3ccc(C(F)F)c(Cl)c3)C2(Cl)Cl)ccc1Cl` (centres unmarked) [Compound 1083], in test [1] (setting [5]), the inhibition at 0.1 µM is 100%.

Take `O=C(Nc1ncc(F)cc1F)c1cc(NC(=O)C2C(c3cccc(C(F)F)c3)C2(Cl)Cl)ccc1Cl` (centres unmarked) [Compound 1085]: the inhibition at 0.1 µM in test [1] (setting [5]) turned out to be 100%. As to `O=C(Nc1ccc(F)cc1F)c1cc(NC(=O)[C@H]2[C@H](c3ccc(F)c(Cl)c3)C2(Cl)Cl)ccc1Cl` [Compound 1087], in test [1] (24 h), the inhibition at 0.001 µM turned out to be 100%. Further, the EC50 in test [2] fell in the range of 1 to 25 nM. Regarding `O=C(Nc1ccc(F)cc1)c1cc(NC(=O)[C@H]2[C@H](c3cc(Cl)cc(Cl)c3)C2(Cl)Cl)ccc1F` [Compound 1090], the inhibition at 0.001 µM in test [1] (24 h) was 100%. Besides, in test [2], the EC50 was in the range of 1 to 10 nM. On to `O=C(Nc1ccc(F)cc1F)c1cc(NC(=O)[C@H]2[C@H](c3cc(Cl)cc(Cl)c3)C2(Cl)Cl)ccc1F` [Compound 1091], for which the EC50 in test [2] (setting [3]) was 1 to 10 nM. The same measure, in the same setting: then `O=C(Nc1c(F)cc(F)cc1F)c1cc(NC(=O)[C@H]2[C@H](c3cc(Cl)cc(Cl)c3)C2(Cl)Cl)ccc1Cl` [Compound 1092], with 1 to 25 nM; and `O=C(Nc1ccc(F)cc1F)c1cc(NC(=O)[C@H]2[C@H](c3cc(F)c(F)c(F)c3)C2(Cl)Cl)ccc1Cl` [Compound 1094], with 1 to 10 nM; and `O=C(Nc1ncc(F)cc1F)c1cc(NC(=O)[C@H]2[C@H](c3cc(Cl)cc(Cl)c3)C2(Cl)Cl)ccc1Cl` [Compound 1097], with 1 to 10 nM. On the same count and under the same terms, then `Cc1cc(NC(=O)c2cc(NC(=O)[C@H]3[C@H](c4cc(Cl)cc(Cl)c4)C3(Cl)Cl)ccc2Cl)ncc1F` [Compound 1098], with 1 to 10 nM.

Consider `O=C(Nc1ccccc1)c1cc(NC(=O)[C@H]2[C@H](c3cc(Cl)cc(Cl)c3)C2(Cl)Cl)ccc1Cl` [Compound 1099], for which the inhibition at 0.01 µM in test [1] (setting [4]) came out at 100%. In addition, in test [2] (setting [3]), the EC50 lay in the range of 1 to 10 nM. In addition, the inhibition in vivo at 5 mg/kg in the test with Lepeophtheirus salmonis (setting [6]) came out at 80%; in the test on Lepeophtheirus salmonis (setting [7]), 100%. For `Cc1ccc(NC(=O)[C@H]2[C@H](c3cc(Cl)cc(Cl)c3)C2(Cl)Cl)cc1C(=O)Nc1ccc(F)cc1` [Compound 1101], the inhibition at 0.1 µM in test [1] (setting [5]) stood at 100%. For the same compound, the EC50 in test [2] (setting [3]) was in the range of 1 to 10 nM. Turning to `Nc1c(F)ccc(NC(=O)c2cc(NC(=O)C3C(c4cc(F)cc(C(F)(F)F)c4)C3(Cl)Cl)ccc2Cl)c1F` (centres unmarked) [Compound 1132], in test [1] (setting [5]), the inhibition at 0.1 µM turned out to be 100%. Regarding `Nc1c(F)ccc(NC(=O)c2cc(NC(=O)C3C(c4cccc(F)c4)C3(Cl)Cl)ccc2Cl)c1F` (centres unmarked) [Compound 1227], in test [1] (setting [5]), the inhibition at 0.1 µM is 100%. As for `Nc1c(F)ccc(NC(=O)c2cc(NC(=O)C3C(c4cccc(C(F)(F)F)c4)C3(Cl)Cl)ccc2Cl)c1F` (centres unmarked) [Compound 1243], the inhibition at 0.1 µM in test [1] (setting [5]) was 100%.

Consider `Nc1c(F)ccc(NC(=O)c2cc(NC(=O)C3C(c4cccc(Cl)c4)C3(Cl)Cl)ccc2Cl)c1F` (centres unmarked) [Compound 1248], for which the inhibition at 0.1 µM in test [1] (setting [5]) is 100%. `O=C(Nc1cnc(F)cc1F)c1cc(NC(=O)[C@H]2[C@H](c3cc(Cl)cc(Cl)c3)C2(Cl)Cl)ccc1Cl` [Compound 1366]: the EC50 in test [2] (setting [3]) was in the range of 1 to 10 nM. On the same count and under the same terms, then `O=C(Nc1c(F)ccnc1F)c1cc(NC(=O)[C@H]2[C@H](c3cc(Cl)cc(Cl)c3)C2(Cl)Cl)ccc1Cl` [Compound 1367], with 1 to 10 nM; and `O=C(Nc1ncc(F)cn1)c1cc(NC(=O)[C@H]2[C@H](c3cc(Cl)cc(Cl)c3)C2(Cl)Cl)ccc1Cl` [Compound 1372], with 1 to 10 nM.

For the compound `O=C(Nc1ccc2nccn2c1)c1cc(NC(=O)C2C(c3cc(Cl)cc(Cl)c3)C2(Cl)Cl)ccc1Cl` (centres unmarked) [Compound 1373], the inhibition at 0.1 µM in test [1] (setting [5]) stood at 100%.

For the compound `O=C(Nc1ncc(F)cc1F)c1cccc(NC(=O)[C@H]2[C@H](c3cc(Cl)cc(Cl)c3)C2(Cl)Cl)c1F` [Compound 1379], the inhibition at 0.1 µM in test [1] (setting [5]) turned out to be 100%. Also, the EC50 in test [2] (setting [3]) lay within 1 to 25 nM.

For `O=C(Nc1cnc(F)cc1F)c1cc(NC(=O)[C@H]2[C@H](c3cc(Cl)c(Cl)c(Cl)c3)C2(Cl)Cl)ccc1Cl` [Compound 1380], the EC50 in test [2] (setting [3]) fell in the range of 1 to 10 nM. Take `O=C(Nc1ncc(F)cc1F)c1c(Cl)ccc(NC(=O)C2C(c3cc(Cl)cc(Cl)c3)C2(Cl)Cl)c1F` (centres unmarked) [Compound 1381]: the inhibition at 0.1 µM in test [1] (setting [5]) turned out to be 100%.

For `Cc1ccc(NC(=O)C2C(c3ccc(Cl)c(Cl)c3)C2(Cl)Cl)c(F)c1C(=O)Nc1ncc(F)cc1F` (centres unmarked) [Compound 1382], in test [1] (setting [5]), the inhibition at 0.1 µM was determined as 100%. On to `O=C(Nc1ncc(F)cc1F)c1cc(NC(=O)C2C(c3cc(Cl)c(F)c(Cl)c3)C2(Cl)Cl)ccc1Cl` (centres unmarked) [Compound 1383], for which the inhibition at 0.01 µM in test [1] (setting [4]) came out at 100%. In test [2] (setting [3]), the EC50 was in the range of 1 to 10 nM. As to `O=C(Nc1ncc(F)cc1F)c1cc(NC(=O)C2C(c3cc(Cl)c(Cl)c(Cl)c3)C2(Cl)Cl)ccc1Cl` (centres unmarked) [Compound 1384], the inhibition at 0.1 µM in test [1] (setting [5]) turned out to be 100%. On to `O=C(Nc1ncc(F)cc1F)c1cc(NC(=O)C2C(c3cc(C(F)(F)F)cc(C(F)(F)F)c3)C2(Cl)Cl)ccc1Cl` (centres unmarked) [Compound 1385], for which the inhibition at 0.01 µM in test [1] (setting [4]) stood at 100%. For the same compound, the EC50 in test [2] (setting [3]) lay within 1 to 10 nM.

As for `O=C(Nc1ccc(F)cc1F)c1cc(NC(=O)C2C(c3cc(C(F)(F)F)cc(C(F)(F)F)c3)C2(Cl)Cl)ccc1Cl` (centres unmarked) [Compound 1386], in test [1] (setting [4]), the inhibition at 0.01 µM came out at 80%. With `O=C(Nc1ccc(F)cc1F)c1cc(NC(=O)C2C(c3cc(C(F)(F)F)cc(C(F)(F)F)c3)C2(Cl)Cl)ccc1F` (centres unmarked) [Compound 1387], in test [1] (setting [5]), the inhibition at 0.1 µM worked out at 100%. Besides, the EC50 in test [2] (setting [3]) was in the range of 1 to 10 nM. As for `O=C(Nc1ncc(F)cc1F)c1cc(NC(=O)C2C(c3cc(C(F)(F)F)cc(C(F)(F)F)c3)C2(Cl)Cl)cc(F)c1F` (centres unmarked) [Compound 1388], the inhibition at 0.1 µM in test [1] (setting [5]) was 100%. In test [2] (setting [3]), the EC50 is 1 to 10 nM. `O=C(Nc1ncc(F)cc1F)c1cc(NC(=O)C2C(c3cc(Cl)cc(C(F)(F)F)c3)C2(Cl)Cl)ccc1Cl` (centres unmarked) [Compound 1389]: the inhibition at 0.01 µM in test [1] (setting [4]) stood at 100%. In test [2] (setting [3]), the EC50 was at most 1 nM. In the case of `O=C(Nc1ncc(F)cc1F)c1cc(NC(=O)C2C(c3cc(Cl)cc(Cl)c3)C2(Cl)Cl)cc(F)c1F` (centres unmarked) [Compound 1391], the inhibition at 0.01 µM in test [1] (setting [4]) came out at 80%. For the same compound, the EC50 in test [2] (setting [3]) lay within 1 to 10 nM.
